Blank lines part the entries; values can stand above or below the compound they belong to.
Assays:
Glutamate receptor 2 [1] = target: T1, Glutamate receptor 2 (Homo sapiens, UniProt P42262); experiment: Antagonist activity at closed state of GFP-tagged GluA2Qflip isoform (unknown origin) expressed in HEK293S cells assessed as reduction in glutamate-induced current response in presence of 0.1 mM glutamate by whole cell assay; assay type: cell-based
Glutamate receptor 2 [2] = target: T1, Glutamate receptor 2; experiment: Antagonist activity at open state of GFP-tagged GluA2Qflip isoform (unknown origin) expressed in HEK293S cells assessed as reduction in glutamate-induced current response in presence of 3 mM glutamate by whole cell assay relative to control; assay type: cell-based
Glutamate receptor 2 [3] = target: T1, Glutamate receptor 2; experiment: Antagonist activity at closed state of GluA2Qflip isoform (unknown origin) expressed in HEK293 cells assessed as reduction in glutamate-induced current response at 2.5 uM in presence of 0.1 mM glutamate by whole cell assay relative to control; assay type: cell-based
Glutamate receptor 2 [4] = target: T1, Glutamate receptor 2; experiment: Antagonist activity at closed state of GluA2Qflip isoform (unknown origin) expressed in HEK293 cells assessed as reduction in glutamate-induced current response in presence of 0.1 mM glutamate by whole cell assay; assay type: cell-based
Glutamate receptor 2 [5] = target: T1, Glutamate receptor 2; experiment: Antagonist activity at open state of GluA2Qflip isoform (unknown origin) expressed in HEK293 cells assessed as reduction in glutamate-induced current response in presence of 3 mM glutamate by whole cell assay relative to control; assay type: cell-based
Glutamate receptor 2 [6] = target: T1, Glutamate receptor 2; experiment: Antagonist activity at open state of GluA2Qflip isoform (unknown origin) expressed in HEK293 cells assessed as reduction in glutamate-induced current response at 2.5 uM in presence of 3 mM glutamate by whole cell assay relative to control; assay type: cell-based
Glutamate receptor 2 [7] = target: T1, Glutamate receptor 2; experiment: Antagonist activity at closed state of GluA2Qflip isoform (unknown origin) expressed in HEK293 cells assessed as reduction in glutamate-induced current response at 10 uM in presence of 0.1 mM glutamate by whole cell assay relative to control; assay type: cell-based
Glutamate receptor 2 [8] = target: T1, Glutamate receptor 2; experiment: Antagonist activity at open state of GluA2Qflip isoform (unknown origin) expressed in HEK293 cells assessed as reduction in glutamate-induced current response at 10 uM in presence of 3 mM glutamate by whole cell assay relative to control; assay type: cell-based
Glutamate receptor 2 [9] = target: T1, Glutamate receptor 2; experiment: Antagonist activity at closed state of GluA2Qflip isoform (unknown origin) expressed in HEK293 cells assessed as reduction in glutamate-induced current response at 1 uM in presence of 0.1 mM glutamate by whole cell assay relative to control; assay type: cell-based
Glutamate receptor 2 [10] = target: T1, Glutamate receptor 2; experiment: Antagonist activity at open state of GluA2Qflip isoform (unknown origin) expressed in HEK293 cells assessed as reduction in glutamate-induced current response at 1 uM in presence of 3 mM glutamate by whole cell assay relative to control; assay type: cell-based
Glutamate receptor 4 [11] = target: T2, Glutamate receptor 4 (Homo sapiens, UniProt P48058); experiment: Antagonist activity at closed state of GluA4 (unknown origin) assessed as reduction in glutamate-induced current response in presence of 100 uM glutamate
T2 sequence (P48058 whole entry): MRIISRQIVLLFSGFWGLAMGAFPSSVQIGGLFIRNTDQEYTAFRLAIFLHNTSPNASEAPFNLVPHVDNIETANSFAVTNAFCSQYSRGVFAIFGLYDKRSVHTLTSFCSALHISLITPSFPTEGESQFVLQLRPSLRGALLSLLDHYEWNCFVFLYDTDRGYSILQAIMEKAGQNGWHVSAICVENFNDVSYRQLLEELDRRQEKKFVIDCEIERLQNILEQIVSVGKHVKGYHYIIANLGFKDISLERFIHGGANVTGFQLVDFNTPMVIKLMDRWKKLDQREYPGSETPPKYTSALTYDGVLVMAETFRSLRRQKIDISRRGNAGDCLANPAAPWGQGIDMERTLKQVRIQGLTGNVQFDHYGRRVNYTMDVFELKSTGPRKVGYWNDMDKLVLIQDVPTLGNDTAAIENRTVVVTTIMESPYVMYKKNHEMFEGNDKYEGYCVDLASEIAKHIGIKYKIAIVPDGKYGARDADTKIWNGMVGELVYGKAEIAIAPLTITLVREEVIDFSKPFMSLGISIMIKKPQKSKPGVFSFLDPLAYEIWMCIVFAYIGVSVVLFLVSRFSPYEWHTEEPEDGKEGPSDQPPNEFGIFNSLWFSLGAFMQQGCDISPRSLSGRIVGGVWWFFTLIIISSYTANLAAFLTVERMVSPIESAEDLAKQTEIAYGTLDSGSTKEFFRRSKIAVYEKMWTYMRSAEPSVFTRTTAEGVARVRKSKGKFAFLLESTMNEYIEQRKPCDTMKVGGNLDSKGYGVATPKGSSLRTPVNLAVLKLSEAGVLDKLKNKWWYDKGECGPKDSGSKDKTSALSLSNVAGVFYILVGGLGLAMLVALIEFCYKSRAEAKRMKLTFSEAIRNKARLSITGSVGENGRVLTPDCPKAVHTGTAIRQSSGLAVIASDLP

Glutamate receptor 1 [12] = target: T3, Glutamate receptor 1 (Homo sapiens, UniProt P42261); experiment: Antagonist activity at closed state of GluA1 (unknown origin) assessed as reduction in glutamate-induced current response in presence of 40 to 50 uM glutamate
T3 sequence (P42261 whole entry): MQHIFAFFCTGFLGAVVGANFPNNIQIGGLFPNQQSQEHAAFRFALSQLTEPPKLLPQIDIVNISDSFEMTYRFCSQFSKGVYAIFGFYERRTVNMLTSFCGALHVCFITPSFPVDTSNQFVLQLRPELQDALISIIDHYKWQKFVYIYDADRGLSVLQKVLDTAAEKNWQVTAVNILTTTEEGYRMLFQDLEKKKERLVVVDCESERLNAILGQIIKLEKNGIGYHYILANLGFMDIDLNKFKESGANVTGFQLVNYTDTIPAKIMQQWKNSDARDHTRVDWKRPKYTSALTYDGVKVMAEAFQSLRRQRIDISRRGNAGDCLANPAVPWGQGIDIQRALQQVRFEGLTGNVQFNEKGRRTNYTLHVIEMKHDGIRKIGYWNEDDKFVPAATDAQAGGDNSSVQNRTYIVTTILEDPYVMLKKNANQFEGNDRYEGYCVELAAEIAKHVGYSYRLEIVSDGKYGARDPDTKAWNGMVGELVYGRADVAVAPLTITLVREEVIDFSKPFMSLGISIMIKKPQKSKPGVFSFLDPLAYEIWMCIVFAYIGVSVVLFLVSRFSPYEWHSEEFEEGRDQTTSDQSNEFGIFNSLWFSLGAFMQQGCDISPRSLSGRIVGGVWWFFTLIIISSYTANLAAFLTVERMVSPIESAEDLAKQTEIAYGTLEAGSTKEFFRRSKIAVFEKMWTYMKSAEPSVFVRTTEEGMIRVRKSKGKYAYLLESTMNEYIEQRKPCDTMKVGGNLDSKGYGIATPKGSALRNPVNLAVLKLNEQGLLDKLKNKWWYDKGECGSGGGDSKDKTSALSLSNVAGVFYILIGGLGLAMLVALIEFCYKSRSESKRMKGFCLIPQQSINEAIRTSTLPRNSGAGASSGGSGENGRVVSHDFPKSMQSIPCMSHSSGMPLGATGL

Glutamate receptor 4 [13] = target: T2, Glutamate receptor 4; experiment: Antagonist activity at open state of GluA4 (unknown origin) assessed as reduction in glutamate-induced current response in presence of 3 mM glutamate relative to control
Glutamate receptor 1 [14] = target: T3, Glutamate receptor 1; experiment: Antagonist activity at open state of GluA1 (unknown origin) assessed as reduction in glutamate-induced current response in presence of 2 mM glutamate relative to control
Glutamate receptor 3 [15] = target: T4, Glutamate receptor 3 (Homo sapiens, UniProt P42263); experiment: Antagonist activity at closed state of GluA3 (unknown origin) assessed as reduction in glutamate-induced current response in presence of 100 uM glutamate relative to control
T4 sequence (P42263 whole entry): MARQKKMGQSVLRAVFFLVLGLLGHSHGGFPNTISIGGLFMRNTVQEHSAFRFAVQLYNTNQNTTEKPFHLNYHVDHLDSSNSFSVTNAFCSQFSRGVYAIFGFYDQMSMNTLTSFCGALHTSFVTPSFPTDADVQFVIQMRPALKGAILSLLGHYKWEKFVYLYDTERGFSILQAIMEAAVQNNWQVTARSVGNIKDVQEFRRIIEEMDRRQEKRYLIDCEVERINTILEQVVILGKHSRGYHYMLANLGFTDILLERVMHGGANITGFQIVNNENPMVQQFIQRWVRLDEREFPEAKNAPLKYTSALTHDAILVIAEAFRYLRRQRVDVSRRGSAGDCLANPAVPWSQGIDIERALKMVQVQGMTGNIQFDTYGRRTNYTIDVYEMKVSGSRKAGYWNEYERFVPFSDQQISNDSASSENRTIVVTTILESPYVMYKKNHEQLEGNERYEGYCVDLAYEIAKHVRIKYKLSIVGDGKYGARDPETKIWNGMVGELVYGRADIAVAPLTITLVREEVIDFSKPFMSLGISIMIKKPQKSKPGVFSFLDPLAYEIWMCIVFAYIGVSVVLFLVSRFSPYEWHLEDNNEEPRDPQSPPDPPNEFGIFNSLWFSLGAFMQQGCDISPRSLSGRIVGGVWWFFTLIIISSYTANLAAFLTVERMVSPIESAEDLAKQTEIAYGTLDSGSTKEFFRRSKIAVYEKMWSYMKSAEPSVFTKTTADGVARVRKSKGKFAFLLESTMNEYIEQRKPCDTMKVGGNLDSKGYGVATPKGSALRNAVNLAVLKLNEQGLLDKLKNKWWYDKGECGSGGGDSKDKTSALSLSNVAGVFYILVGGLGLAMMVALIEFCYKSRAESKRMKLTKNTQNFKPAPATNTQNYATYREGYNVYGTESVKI

Glutamate receptor 3 [16] = target: T4, Glutamate receptor 3; experiment: Antagonist activity at open state of GluA3 (unknown origin) assessed as reduction in glutamate-induced current response in presence of 3 mM glutamate relative to control
Glutamate receptor 1 [17] = target: T3, Glutamate receptor 1; experiment: Antagonist activity at open state of GluA1 (unknown origin) assessed as reduction in glutamate-induced current response in presence of 2 mM glutamate
Glutamate receptor 4 [18] = target: T2, Glutamate receptor 4; experiment: Antagonist activity at closed state of GluA4 (unknown origin) assessed as reduction in glutamate-induced current response in presence of 100 uM glutamate relative to control
Glutamate receptor 3 [19] = target: T4, Glutamate receptor 3; experiment: Antagonist activity at open state of GluA3 (unknown origin) assessed as reduction in glutamate-induced current response in presence of 3 mM glutamate
Glutamate receptor 4 [20] = target: T2, Glutamate receptor 4; experiment: Antagonist activity at open state of GluA4 (unknown origin) assessed as reduction in glutamate-induced current response in presence of 3 mM glutamate
Glutamate receptor 3 [21] = target: T4, Glutamate receptor 3; experiment: Antagonist activity at closed state of GluA3 (unknown origin) assessed as reduction in glutamate-induced current response in presence of 100 uM glutamate
Glutamate receptor 1 [22] = target: T3, Glutamate receptor 1; experiment: Antagonist activity at closed state of GluA1 (unknown origin) assessed as reduction in glutamate-induced current response in presence of 40 to 50 uM glutamate relative to control

T1 sequence (P42262 whole entry, canonical isoform): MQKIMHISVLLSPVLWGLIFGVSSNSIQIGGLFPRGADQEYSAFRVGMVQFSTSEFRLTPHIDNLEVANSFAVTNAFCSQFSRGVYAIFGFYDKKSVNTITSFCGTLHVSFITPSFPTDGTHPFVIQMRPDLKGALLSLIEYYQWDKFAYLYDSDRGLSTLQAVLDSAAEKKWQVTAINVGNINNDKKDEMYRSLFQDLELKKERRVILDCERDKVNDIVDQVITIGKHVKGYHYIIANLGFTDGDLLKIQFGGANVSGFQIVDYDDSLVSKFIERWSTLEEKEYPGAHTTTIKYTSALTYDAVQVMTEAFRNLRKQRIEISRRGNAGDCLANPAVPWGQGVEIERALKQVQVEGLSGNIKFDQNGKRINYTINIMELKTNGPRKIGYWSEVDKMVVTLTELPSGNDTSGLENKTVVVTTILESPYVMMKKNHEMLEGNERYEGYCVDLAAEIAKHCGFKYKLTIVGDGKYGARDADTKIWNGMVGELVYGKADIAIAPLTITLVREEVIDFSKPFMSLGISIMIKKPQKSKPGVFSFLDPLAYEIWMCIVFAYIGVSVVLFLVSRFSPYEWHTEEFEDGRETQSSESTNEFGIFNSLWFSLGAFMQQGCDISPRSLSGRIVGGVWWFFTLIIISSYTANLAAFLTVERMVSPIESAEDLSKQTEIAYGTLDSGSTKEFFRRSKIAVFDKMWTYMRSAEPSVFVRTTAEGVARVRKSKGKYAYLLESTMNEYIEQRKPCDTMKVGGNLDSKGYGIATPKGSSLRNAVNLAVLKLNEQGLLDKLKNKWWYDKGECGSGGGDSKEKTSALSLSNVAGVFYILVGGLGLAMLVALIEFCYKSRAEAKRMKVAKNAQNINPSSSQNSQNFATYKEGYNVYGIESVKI

SMILES: Cc1cc(C2=NNC(=O)Cc3cc4c(cc32)OCCO4)cc(C)c1N
Ki (Glutamate receptor 2 [1]): 94 µM | Ki (Glutamate receptor 2 [2]): 164 µM

SMILES: Nc1ccc(C2=NNC(=O)Cc3cc4c(cc32)OCCO4)cc1
Ki (Glutamate receptor 2 [1]): 21 µM | Ki (Glutamate receptor 2 [2]): 33 µM

SMILES: Cc1cc(C2=NNC(=O)Cc3cc4c(cc32)OCCO4)ccc1N
Ki (Glutamate receptor 2 [1]): 4 µM | Ki (Glutamate receptor 2 [2]): 9 µM

SMILES: Cc1cc(C2=NN(CC3CC(Br)=NO3)C(=O)Cc3cc4c(cc32)OCCO4)ccc1N (stereo not drawn)
fold change (FC) (Glutamate receptor 2 [7]): 1.23 | fold change (FC) (Glutamate receptor 2 [8]): 1.2 | Ki (Glutamate receptor 2 [4]): 50 µM | Ki (Glutamate receptor 2 [5]; read-out: Ki): 50 µM

SMILES: Nc1ccc(C2=NN(CC3CC(Br)=NO3)C(=O)Cc3cc4c(cc32)OCCO4)cc1 (stereo not drawn)
fold change (FC) (Glutamate receptor 2 [9]): 1.44 | fold change (FC) (Glutamate receptor 2 [10]): 1.09

SMILES: CC1=NN=C(c2ccc(N)cc2)c2cc3c(cc2C1)OCO3 [GYKI-52466]
Ki (Glutamate receptor 2 [1]): 4 µM | Ki (Glutamate receptor 2 [2]): 5 µM

SMILES: Cc1cc(C2=NN(CC3CC(Br)=NO3)C(=O)Cc3cc4c(cc32)OCCO4)cc(C)c1N (stereo not drawn)
Ki (Glutamate receptor 4 [11]): 7.4 µM | Ki (Glutamate receptor 1 [12]): 13.2 µM | fold change (FC) (Glutamate receptor 4 [13]): 1.22 | fold change (FC) (Glutamate receptor 2 [3]): 1.46 | fold change (FC) (Glutamate receptor 1 [14]): 1.39 | fold change (FC) (Glutamate receptor 3 [15]): 1.09 | fold change (FC) (Glutamate receptor 3 [16]): 1.18 | Ki (Glutamate receptor 1 [17]): 6.4 µM | fold change (FC) (Glutamate receptor 4 [18]): 1.34 | Ki (Glutamate receptor 3 [19]): 13.9 µM | Ki (Glutamate receptor 4 [20]): 11.4 µM | Ki (Glutamate receptor 2 [4]): 5 µM | Ki (Glutamate receptor 3 [21]): 27.8 µM | Ki (Glutamate receptor 2 [5]): Not Active | fold change (FC) (Glutamate receptor 2 [6]): 0.95 | fold change (FC) (Glutamate receptor 1 [22]): 1.19

Other lines, results leading:

fold change (FC) (Glutamate receptor 2 [3]): 1.75 | Ki (Glutamate receptor 2 [4]): 3 µM | Ki (Glutamate receptor 2 [5]; read-out: Ki): 14 µM | fold change (FC) (Glutamate receptor 2 [6]): 1.18
SMILES: Nc1ccc(C2=NN(C3CC(Br)=NO3)C(=O)Cc3cc4c(cc32)OCCO4)cc1 (stereo not drawn)

fold change (FC) (Glutamate receptor 2 [9]): 1.21 | fold change (FC) (Glutamate receptor 2 [10]): 1.24
SMILES: Cc1cc(C2=NN(C3CC(Br)=NO3)C(=O)Cc3cc4c(cc32)OCCO4)cc(C)c1N (stereo not drawn)

fold change (FC) (Glutamate receptor 2 [9]): 1.01 | fold change (FC) (Glutamate receptor 2 [10]): 1.16
SMILES: Cc1cc(C2=NN(C3CC(Br)=NO3)C(=O)Cc3cc4c(cc32)OCCO4)ccc1N (stereo not drawn)

— ChEMBL document CHEMBL4052654, “Development of novel N-3-bromoisoxazolin-5-yl substituted 2,3-benzodiazepines as noncompetitive AMPAR antagonists” (Bioorg Med Chem, 2017)
